Results as given in patent US10233173B2, “Substituted 1,2,3-triazoles as NR2B-selective NMDA modulators” (JANSSEN PHARMACEUTICA NV, priority 2016, dated 2019).

The compounds below were run against human GluN1/GluN2B NMDA receptors (Homo sapiens, UniProt Q05586+Q13224) (assay: Cell-based calcium flux (FLIPR) assay on cloned human NR1/NR2B ion channels expressed in mammalian cells). Settings: standard assay; glutamate at ~EC80; FLIPR calcium flux.
Method in brief: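 Calcium influx followed by FLIPR fluorescence after 5 min compound exposure and a further 5 min co-agonist challenge: 10 μM glycine with glutamate at ~EC80 (standard) or EC40 (HTS).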

Sequence of human GluN1/GluN2B NMDA receptors (Q13224 27-1484, other chains not shown): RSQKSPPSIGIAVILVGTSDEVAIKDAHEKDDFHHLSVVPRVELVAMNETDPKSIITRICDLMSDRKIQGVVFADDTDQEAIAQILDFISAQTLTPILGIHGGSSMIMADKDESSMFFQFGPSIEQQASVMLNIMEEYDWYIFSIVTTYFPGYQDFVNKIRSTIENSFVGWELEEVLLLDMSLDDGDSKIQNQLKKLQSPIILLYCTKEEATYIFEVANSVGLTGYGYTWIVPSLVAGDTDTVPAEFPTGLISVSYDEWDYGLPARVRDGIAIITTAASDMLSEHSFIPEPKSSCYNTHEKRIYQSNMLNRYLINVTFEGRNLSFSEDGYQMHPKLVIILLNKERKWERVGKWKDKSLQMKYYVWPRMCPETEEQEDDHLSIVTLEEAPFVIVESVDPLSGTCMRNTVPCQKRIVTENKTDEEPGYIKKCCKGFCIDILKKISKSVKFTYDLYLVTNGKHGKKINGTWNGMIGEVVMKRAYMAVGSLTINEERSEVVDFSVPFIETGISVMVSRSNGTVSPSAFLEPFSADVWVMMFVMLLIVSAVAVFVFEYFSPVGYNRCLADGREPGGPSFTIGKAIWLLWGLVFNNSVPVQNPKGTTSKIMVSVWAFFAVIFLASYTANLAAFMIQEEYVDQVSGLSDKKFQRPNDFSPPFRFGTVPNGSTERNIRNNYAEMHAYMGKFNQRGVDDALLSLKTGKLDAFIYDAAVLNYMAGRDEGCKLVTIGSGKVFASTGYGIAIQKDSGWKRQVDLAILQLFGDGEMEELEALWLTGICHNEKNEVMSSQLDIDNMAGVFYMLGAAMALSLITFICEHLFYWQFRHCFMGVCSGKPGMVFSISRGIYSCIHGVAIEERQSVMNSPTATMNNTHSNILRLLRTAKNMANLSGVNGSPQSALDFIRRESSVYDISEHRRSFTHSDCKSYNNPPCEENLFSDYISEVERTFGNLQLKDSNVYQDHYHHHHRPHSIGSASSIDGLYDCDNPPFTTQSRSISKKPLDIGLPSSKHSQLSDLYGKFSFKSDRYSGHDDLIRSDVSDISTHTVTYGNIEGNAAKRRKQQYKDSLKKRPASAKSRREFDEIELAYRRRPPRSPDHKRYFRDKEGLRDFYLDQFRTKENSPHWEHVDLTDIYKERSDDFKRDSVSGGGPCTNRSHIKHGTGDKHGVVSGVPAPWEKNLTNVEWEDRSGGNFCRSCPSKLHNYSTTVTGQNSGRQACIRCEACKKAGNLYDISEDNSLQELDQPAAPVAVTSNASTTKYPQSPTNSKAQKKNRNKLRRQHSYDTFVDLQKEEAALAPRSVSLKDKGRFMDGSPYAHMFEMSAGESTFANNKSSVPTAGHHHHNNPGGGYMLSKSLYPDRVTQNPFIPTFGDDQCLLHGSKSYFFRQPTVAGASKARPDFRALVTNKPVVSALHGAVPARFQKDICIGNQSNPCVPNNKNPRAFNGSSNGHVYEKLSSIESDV

Point of comparison: `CC(=O)c1cnc(OCc2cn(-c3ccc(F)c(C(F)(F)F)c3)nn2)nc1` [Example 447, 1-[2-[[1-[4-Fluoro-3-(trifluoromethyl)phenyl]triazol-4-yl]methoxy]pyrimidin-5-yl]ethanone], IC50 0.014 µM. Against it:
- COC(C)(C)c1cnc(OCc2cn(-c3ccc(F)c(C(F)(F)F)c3)nn2)nc1 [Example 436, 2-[[1-[4-Fluoro-3-(trifluoromethyl)phenyl]triazol-4-yl]methoxy]-5-(1-methoxy-1-methyl-ethyl)pyrimidine] — 230-fold higher, 3.26 µM
- COCc1cnc(OCc2cn(-c3ccc(F)c(C(F)(F)F)c3)nn2)nc1 [Example 437, 2-[[1-[4-Fluoro-3-(trifluoromethyl)phenyl]triazol-4-yl]methoxy]-5-(methoxymethyl)pyrimidine] — 5.1-fold higher, 0.071 µM
- COCc1ccnc(OCc2cn(-c3ccc(F)c(C(F)(F)F)c3)nn2)n1 [Example 438, 2-[[1-[4-Fluoro-3-(trifluoromethyl)phenyl]triazol-4-yl]methoxy]-4-(methoxymethyl)pyrimidine] — 6.7-fold higher, 0.094 µM
- Fc1ccc(-n2cc(COc3ncc(C(F)F)cn3)nn2)cc1C(F)(F)F [Example 439, 5-(Difluoromethyl)-2-[[1-[4-fluoro-3-(trifluoromethyl)phenyl]triazol-4-yl]methoxy]pyrimidine] — within 1.5-fold, 0.013 µM
- Fc1ccc(-n2cc(COc3nccc(C(F)F)n3)nn2)cc1C(F)(F)F [Example 440, 4-(Difluoromethyl)-2-[[1-[4-fluoro-3-(trifluoromethyl)phenyl]triazol-4-yl]methoxy]pyrimidine] — 7-fold higher, 0.098 µM
- COc1ccnc(OCc2cn(-c3ccc(F)c(C(F)(F)F)c3)nn2)n1 [Example 442, 2-[[1-[4-Fluoro-3-(trifluoromethyl)phenyl]triazol-4-yl]methoxy]-4-methoxy-pyrimidine] — 5.1-fold higher, 0.072 µM
- CCOc1cnc(OCc2cn(-c3ccc(F)c(C(F)(F)F)c3)nn2)nc1 [Example 443, 5-Ethoxy-2-[[1-[4-fluoro-3-(trifluoromethyl)phenyl]triazol-4-yl]methoxy]pyrimidine] — 3.5-fold lower, 0.004 µM
- Cc1nc(OCc2cn(-c3ccc(F)c(C(F)(F)F)c3)nn2)ncc1Cl [Example 444, 5-Chloro-2-[[1-[4-fluoro-3-(trifluoromethyl)phenyl]triazol-4-yl]methoxy]-4-methyl-pyrimidine] — within 1.5-fold, 0.013 µM
- Cc1nc(OCc2cn(-c3ccc(F)c(C(F)(F)F)c3)nn2)ncc1F [Example 445, 5-Fluoro-2-[[1-[4-fluoro-3-(trifluoromethyl)phenyl]triazol-4-yl]methoxy]-4-methyl-pyrimidine] — 2.3-fold lower, 0.006 µM
- CNc1ccnc(OCc2cn(-c3ccc(F)c(C(F)(F)F)c3)nn2)n1 [Example 449, 2-[[1-[4-Fluoro-3-(trifluoromethyl)phenyl]triazol-4-yl]methoxy]-N-methyl-pyrimidin-4-amine] — 2.4-fold higher, 0.034 µM
- CN(C)c1ccnc(OCc2cn(-c3ccc(F)c(C(F)(F)F)c3)nn2)n1 [Example 450, 2-[[1-[4-Fluoro-3-(trifluoromethyl)phenyl]triazol-4-yl]methoxy]-N,N-dimethyl-pyrimidin-4-amine] — 2.1-fold higher, 0.03 µM
- CNc1nc(OCc2cn(-c3ccc(F)c(C(F)(F)F)c3)nn2)ncc1F [Example 451, 5-Fluoro-2-[[1-[4-fluoro-3-(trifluoromethyl)phenyl]triazol-4-yl]methoxy]-N-methyl-pyrimidin-4-amine] — 21-fold higher, 0.298 µM
- CNC(=O)c1cnc(OCc2cn(-c3ccc(F)c(C(F)(F)F)c3)nn2)nc1 [Example 452, 2-[[1-[4-Fluoro-3-(trifluoromethyl)phenyl]triazol-4-yl]methoxy]-N-methyl-pyrimidine-5-carboxamide] — 16-fold higher, 0.218 µM
- Fc1ccc(-n2cc(COc3ncc(C4CC4)cn3)nn2)cc1C(F)(F)F [Example 453, 5-Cyclopropyl-2-[[1-[4-fluoro-3-(trifluoromethyl)phenyl]triazol-4-yl]methoxy]pyrimidine] — 1.6-fold higher, 0.022 µM
- Fc1ccc(-n2cc(COc3ncc(Br)cn3)nn2)cc1C(F)(F)F [Example 454, 5-Bromo-2-((1-(4-fluoro-3-(trifluoromethyl)phenyl)-1H-1,2,3-triazol-4-yl)methoxy)pyrimidine] — within 1.5-fold, 0.013 µM
- Fc1ccc(-n2cc(COc3ncc(N4CC(F)C4)cn3)nn2)cc1C(F)(F)F [Example 455, 2-((1-(4-Fluoro-3-(trifluoromethyl)phenyl)-1H-1,2,3-triazol-4-yl)methoxy)-5-(3-fluoroazetidin-1-yl)pyrimidine] — 2.4-fold higher, 0.034 µM
- Fc1ccc(-n2cc(COc3ncc(N4CCOCC4)cn3)nn2)cc1C(F)(F)F [Example 456, 4-(2-((1-(4-Fluoro-3-(trifluoromethyl)phenyl)-1H-1,2,3-triazol-4-yl)methoxy)pyrimidin-5-yl)morpholine] — 36-fold higher, 0.5 µM
- Cc1nc(OCc2cn(-c3ccc(F)c(C(F)(F)F)c3)nn2)ncc1N1CCC1 [Example 457, 5-(Azetidin-1-yl)-2-((1-(3-(trifluoromethyl)-4-fluorophenyl)-1H-1,2,3-triazol-4-yl)methoxy)-4-methylpyrimidine] — 21-fold higher, 0.296 µM
- CCNc1cnc(OCc2cn(-c3ccc(F)c(C(F)(F)F)c3)nn2)nc1C [Example 458, 2-((1-(3-(Trifluoromethyl)-4-fluorophenyl)-1H-1,2,3-triazol-4-yl)methoxy)-N-ethyl-4-methylpyrimidin-5-amine] — 31-fold higher, 0.439 µM
- CCNc1cnc(OCc2cn(-c3ccc(F)c(C(F)(F)F)c3)nn2)nc1 [Example 459, 2-((1-(3-(Trifluoromethyl)-4-fluorophenyl)-1H-1,2,3-triazol-4-yl)methoxy)-N-ethylpyrimidin-5-amine] — 9-fold higher, 0.126 µM
- COC1CN(c2cnc(OCc3cn(-c4ccc(F)c(C(F)(F)F)c4)nn3)nc2)C1 [Example 460, 2-((1-(3-(Trifluoromethyl)-4-fluorophenyl)-1H-1,2,3-triazol-4-yl)methoxy)-5-(3-methoxyazetidin-1-yl)pyrimidine] — 52-fold higher, 0.726 µM
- Fc1c(-n2cc(COc3ncc(Cl)cn3)nn2)cccc1C(F)(F)F [Example 461, 5-Chloro-2-[[1-[2-fluoro-3-(trifluoromethyl)phenyl]triazol-4-yl]methoxy]pyrimidine] — 5-fold higher, 0.07 µM
- Cc1cc(OCc2cn(-c3ccc(F)c(C)c3)nn2)ncn1 [Example 462, 4-[[1-(4-Fluoro-3-methyl-phenyl)triazol-4-yl]methoxy]-6-methyl-pyrimidine] — 220-fold higher, 3.03 µM
- Cc1c(F)cccc1-n1cc(COc2ncc(Cl)cn2)nn1 [Example 463, 5-Chloro-2-[[1-(3-fluoro-2-methyl-phenyl)triazol-4-yl]methoxy]pyrimidine] — 46-fold higher, 0.647 µM
- Cc1cnc(OCc2cn(-c3cccc(F)c3C)nn2)nc1 [Example 464, 2-[[1-(3-Fluoro-2-methyl-phenyl)triazol-4-yl]methoxy]-5-methyl-pyrimidine] — 37-fold higher, 0.515 µM
- Cc1nc(OCc2cn(-c3cccc(F)c3C)nn2)ncc1F [Example 465, 5-Fluoro-2-[[1-(3-fluoro-2-methyl-phenyl)triazol-4-yl]methoxy]-4-methyl-pyrimidine] — 270-fold higher, 3.72 µM
- Cc1c(F)cccc1-n1cc(COc2ncc(C(C)(C)O)cn2)nn1 [Example 466, 2-[2-[[1-(3-Fluoro-2-methyl-phenyl)triazol-4-yl]methoxy]pyrimidin-5-yl]propan-2-ol] — 500-fold higher, 7.01 µM
- Cc1cnc(OCc2cn(-c3cccc(C)c3F)nn2)nc1 [Example 467, 2-[[1-(2-Fluoro-3-methyl-phenyl)triazol-4-yl]methoxy]-5-methyl-pyrimidine] — 51-fold higher, 0.711 µM
- Cc1cccc(-n2cc(COc3ncc(Cl)cn3)nn2)c1F [Example 468, 5-Chloro-2-[[1-(2-fluoro-3-methyl-phenyl)triazol-4-yl]methoxy]pyrimidine] — 89-fold higher, 1.25 µM
- Cc1cccc(-n2cc(COc3ncc(C(F)(F)F)cn3)nn2)c1F [Example 469, 2-[[1-(2-Fluoro-3-methyl-phenyl)triazol-4-yl]methoxy]-5-(trifluoromethyl)pyrimidine] — 76-fold higher, 1.06 µM
- Cc1cccc(-n2cc(COc3ncc(Cl)c(C)n3)nn2)c1F [Example 470, 5-Chloro-2-[[1-(2-fluoro-3-methyl-phenyl)triazol-4-yl]methoxy]-4-methyl-pyrimidine] — 47-fold higher, 0.659 µM
- Cc1cccc(-n2cc(COc3ncc(OC(F)F)cn3)nn2)c1F [Example 471, 5-(Difluoromethoxy)-2-[[1-(2-fluoro-3-methyl-phenyl)triazol-4-yl]methoxy]pyrimidine] — 120-fold higher, 1.73 µM
- Cc1cc(-n2cc(COc3nccc(N)n3)nn2)ccc1F [Example 472, 2-[[1-(4-Fluoro-3-methyl-phenyl)triazol-4-yl]methoxy]pyrimidin-4-amine] — 11-fold higher, 0.149 µM
- Cc1cc(-n2cc(COc3ncccn3)nn2)ccc1F [Example 473, 2-[[1-(4-Fluoro-3-methyl-phenyl)triazol-4-yl]methoxy]pyrimidine] — 5.1-fold higher, 0.072 µM
- Cc1cc(-n2cc(COc3ncc(F)cn3)nn2)ccc1F [Example 474, 5-Fluoro-2-[[1-(4-fluoro-3-methyl-phenyl)triazol-4-yl]methoxy]pyrimidine] — 1.6-fold higher, 0.022 µM
- COCc1ccnc(OCc2cn(-c3ccc(F)c(C)c3)nn2)n1 [Example 479, 2-[[1-(4-Fluoro-3-methyl-phenyl)triazol-4-yl]methoxy]-4-(methoxymethyl)pyrimidine] — 2.6-fold higher, 0.036 µM
- Cc1cc(-n2cc(COc3ncc(F)c(C)n3)nn2)ccc1F [Example 481, 5-Fluoro-2-[[1-(4-fluoro-3-methyl-phenyl)triazol-4-yl]methoxy]-4-methyl-pyrimidine] — 7-fold lower, 0.002 µM
- Cc1cc(-n2cc(COc3ncc(OCCF)cn3)nn2)ccc1F [Example 483, 5-(2-Fluoroethoxy)-2-[[1-(4-fluoro-3-methyl-phenyl)triazol-4-yl]methoxy]pyrimidine] — 2-fold lower, 0.007 µM
- Cc1cnc(OCc2cn(-c3cc(C)ccc3F)nn2)nc1 [Example 484, 2-[[1-(2-Fluoro-5-methyl-phenyl)triazol-4-yl]methoxy]-5-methyl-pyrimidine] — 71-fold higher, 1 µM
- Cc1ccc(F)c(-n2cc(COc3ncc(Cl)c(C)n3)nn2)c1 [Example 485, 5-Chloro-2-[[1-(2-fluoro-5-methyl-phenyl)triazol-4-yl]methoxy]-4-methyl-pyrimidine] — 72-fold higher, 1.01 µM
